# According to US7524811B2, “Anti-angiogenic peptides from the N-terminus of endostatin” (Children's Medical Center Corporation, priority 2003, dated 2009):
# Several values for one entry are separate records, joined by “and”; a condition that tells them apart may be missing. Equal values may be shown once. Entries after “also recorded” stand apart in the source; their conditions may differ. No end group written: not given here.
# Legend:
# [1] = system: LLC tumors; assay: Lewis lung carcinoma (LLC) tumor model, systemic s.c. treatment; assay type: in vivo, C57B1/6J mice; conditions: peptide s.c. twice a day, 2.8 mg/kg/d, vs PBS
# Description: The murine LLC tumor model (O'Reilly et al. (1994) Cell, 79: 315-328) was used to further characterize these peptides because this tumor grows more rapidly than BxPC-3 cells, allowing for shorter treatment periods. Murine analogs of the endostatin peptides were synthesized. The only difference between the human and murine peptides was that murine P1 peptide contained 27 amino acids instead of 25 amino acids for human P1.
# Control mice were treated with PBS. In these experiments, LLC cells were implanted into the s.c. dorsa of C57B1/6J mice, and systemically treated. Peptides (mP1, mP2, mP5, and mP6) were injected (s.c.) twice a day at a dose of 2.8 mg/kg/d, whereas endostatin and PBS were administered once a day at a dose of 20 mg/kg/d.
# (§1) BxPC-3 and LLC cells were grown in cell culture as described above. […] Mice were shaved and the dorsal skin was cleaned with ethanol before tumor cell injection. A suspension of 5×10^6 tumor cells in 0.1 ml RPMI-1640 (for BxPC-3) or DMEM (for LLC) was injected subcutaneously (s.c.) into the dorsa of mice at the proximal midline. BxPC-3 cells were implanted in SCID mice and LLC in C57B1/6J mice.
# Animals with Lewis Lung carcinoma (600-800 mm^3 tumors) were euthanized, and the skin overlying the tumor was cleaned with Betadine and ethanol. Tumor tissue was excised under aseptic conditions. A suspension of tumor cells in 0.9% normal saline was made by passage of viable tumor tissue through a sieve and a series of sequentially smaller hypodermic needles of diameter 22- to 30-gauge. The final concentration was adjusted to 1×10^7 cells/ml, and the suspension was placed on ice. The injection of tumor cells was performed as described above.
# The mice were weighed and tumors were measured every 3-5 days in two diameters with a dial-caliper. Volumes were determined using the formula a^2×b×0.52 (where a is the shortest and b is the longest diameter). Data is represented as volume of treated tumor over control (T/C). At the completion of each experiment, the mice were euthanized with CO2 asphyxiation. Tumors were fixed in 10% buffered Formalin (Fisher Scientific, Fair Lawn, N.J.) and paraffin-embedded.
# For treatment of tumor-bearing mice, tumor volumes were allowed to grow to approximately 100 mm^3, and mice were randomized. Treatment was performed by single bolus s.c. injections. Peptides were administered twice a day (every 12 hrs). Doses indicated for peptides were corrected for the purity of peptides (approximately 70%). For example, mice injected with 4 mg/kg/d peptide, were actually injected with 2.8 mg/kg/d after correction. The unpaired Student t-test was used for statistical analysis.
# [2] = system: human pancreatic tumor cells BxPC-3; assay: BxPC-3 tumor model, systemic s.c. treatment; assay type: in vivo, SCID mice; conditions: peptide s.c. twice a day, 7 mg/kg/d; for inhibition of BxPC-3 tumor: final measurement at 28 days, n=3, vs PBS
# Description: These peptides were initially tested for anti-tumor activity employing the human pancreatic tumor cells BxPC-3 cells, which were implanted in the s.c. dorsa of SCID mice. For systemic treatment, human endostatin peptides, P1-P8, were administered subcutaneously (s.c.) twice a day at 7 mg/kg/d due to the high clearance rate from the mouse circulation. Full-length Fc-Endostatin, hFcES was administered subcutaneously only once per day at a dose of 20 mg/kg/d. PBS was used as a control.
# Human BxPC-3 pancreatic adenocarcinoma and Lewis lung carcinoma (LLC) cells were grown and maintained as described earlier (Kisker et al. (2001) Cancer Res, 61:7669-7674; O'Reilly et al. (1994) Cell, 79: 315-328). For BxPC-3 tumor cell injection, cells were grown in 900-cm2 roller bottles. Human microvascular endothelial cells (HMVEC-d; Clonetics, Walkersville, Md.) were cultured in microvascular endothelial cell growth medium (EGM-2 MV; Clonetics) and maintained at 5% CO2 in a 37° C. humidified incubator. Recombinant human endostatin was a generous gift from EntreMed Corporation (Rockville, Md.) and recombinant human and murine FcEndostatin were prepared as described earlier (Bergers et al. (1999) Science, 284: 808-812). Human and murine endostatin peptides were synthesized by SynPep Corporation (Dublin, Calif.). Peptides were resuspended in PBS or 50 mM Tris, 150 mM NaCl, pH 7.5. PECAM, purified rat anti-mouse CD31, was obtained from BD Pharmingen (San Diego, Calif.) and human recombinant VEGF was obtained from the NIH (Bethesda, Md.).
# as §1, with “BxPC-3 cells were implanted in SCID mice and LLC in C57B1/6J mice.” left out
# The mice were weighed and tumors were measured every 3-5 days in two diameters with a dial-caliper. Volumes were determined using the formula a^2×b×0.52 (where a is the shortest and b is the longest diameter). […]
# [3] = system: human microvascular endothelial cells (HMVECs); assay: VEGF-induced endothelial cell migration, modified Boyden chamber; assay type: cell-based; conditions: VEGF 5 ng/ml; for concentration at which VEGF-induced EC migration was inhibited: 25 ng/ml peptide equimolar to 200 ng/ml endostatin
# Description: Endostatin peptides were tested for anti-endothelial cell migration activity. Inhibition of VEGF-induced migration of human microvascular endothelial cells (HMVECs) was determined using several doses of endostatin peptides (FIG. 5). Human peptides were used because the cells were of human origin and the migration response of the HMVECs was assayed using a modified Boyden chamber. VEGF (5 ng/ml) was used a chemotactic agent and cells were challenged with human endostatin (Entremed; EM-ES), human Fc-Endostatin (nFcES), human P1 (hP1), human P2 (hP2), human P6 (hP6), and human P1-H1/3A (hP1-H1/3A). Total migration per membrane was quantified from the capture images using Scion Image Software (National Institutes of Health) and the unpaired Student T test was used for statistical analysis.
# The motility response of HMVEC-d cells was assayed using a modified Boyden chamber. Cells were plated in T75-cm2 flasks at 0.5×10^6 cells per flask and allowed to grow for 48 h (˜70% confluent) prior to the migration assay. To facilitate cell adhesion, the upper membrane of a transwell ([…]; Costar) was coated with fibronectin ([…]; Becton Dickinson, Bedford, Mass.) for 1 h at 37° C. Coated membranes were rinsed with PBS and allowed to air dry immediately before use. Cells were detached by trypsinization, treated with trypsinization neutralization solution (Clonetics), and resuspended at a final concentration of 1×10^6 cells/ml in serum-free endothelial basal medium (EBM; Clonetics) containing 0.1% BSA. Cells (200,000 in 0.2 ml) were then treated with 0.2 ml of EBM/BSA containing endostatin or peptides at the indicated concentrations. Cells were incubated for 20 min. at 37° C. with occasional shaking. Cells (50,000 in 100 μl) were added to the upper chamber of the transwell. EBM or EBM supplemented with VEGF (5 ng/ml) was added to the lower chamber and cells were allowed to migrate toward the bottom chamber for 4 h in a humidified incubator containing 5% CO2. Transwell filters were rinsed once with PBS and fixed and stained using a Diff-Quik staining kit (Baxter) following the manufacturer's protocol. Non-migrated cells were removed from the upper chamber with a cotton swab. Stained filters were cut out of the chamber and mounted onto slides using Permount (Fisher). The number of migrated cells was measured using microscopy (three fields from each membrane were captured using a 40x objective), and images were captured with a CCD camera using SPOT software. Total migration per membrane was quantified from the captured images using Scion Image software (National Institutes of Health). All experiments were run in triplicate. The unpaired Student t-test was used for statistical analysis.
# [4] = system: LLC tumors; assay: Lewis lung carcinoma (LLC) tumor model, systemic s.c. treatment; assay type: in vivo, C57B1/6J mice; conditions: peptide at 14 mg/kg/d
# [5] = system: vessel density (CD31) of LLC tumors; assay: Vessel density (CD31 staining) of LLC tumor sections; assay type: in vivo, C57B1/6J mice; conditions: peptide 2.8 mg/kg/d s.c. twice a day
# Description: To determine the effect on angiogenesis after mP1 treatment, LLC tumors treated with mP1, mP2, and endostatin at equimolar concentration were analyzed for vessel density (CD31). […] In each case, peptides were administered twice a day s.c. and LLC tumor sections from day 13 were formalin-fixed paraffin-embedded and then stained with CD31 (PECAM). FIG. 2C show the determination of vessel density and the Y axis is expressed as % CD31/high power field (hpf).
# To determine if Zn binding is also important for the anti-tumor property of endostatin, mP1 and mP1-H1/3A were tested using the LLC tumor model. Peptides were administered twice a day (s.c.) at a dose of 2.8 mg/kg/d. Peptide mPl inhibited LLC by 42% (p =0.031), whereas mPl-H1/3A had no effect (FIG. 3C). To determine if there was a difference in angiogenesis, vessel density (CD31) of LLC tumors was analyzed after mP1 and mP1-H1/3A treatment. […] The unpaired Student t test was used for statistical analysis.
# Tumors were fixed in 10% buffered Formalin overnight at 4° C. The next day, tumors were washed three times in PBS and paraffin-embedded. Sections (5 μm) were permeabilized with 40 μg/ml proteinase K (Roche Diagnostics Corp.) in 0.2 M Tris-HCl buffer (pH 7.6) for 25 minutes at 37° C. and washed with PBS. PECAM (1:250) was incubated at 4° C. overnight. […] Vessel density (average of three fields) was determined by IPLab software. […]
# [6] = Water solubility of peptides; assay type: physicochemical; conditions: high concentrations, read-out: concentration at which not water soluble
# Description: Peptides were approximately 1/7th-1/8th the size of full length endostatin. Three cysteines, 33,165,173, were replaced by alanines (underlined in Table 1), and cysteinel35 was omitted, to prevent the formation of disulfide bonds. Two additional lysines were added at the C-terminal of hP8 to increase its solubility (double underlined). Most peptides were water soluble, except for hP2 at high concentrations (>2.5 mg/ml). Also, all peptides were approximately 70% pure. However, no difference in tumor inhibition was observed when peptides of more than 95% purity were used.
molecule,measurement,setting,value
ATAQDFQPVLHLVALNTPLSGGMRGIR [mP1-H1/3A],anti-tumor effect on LLC,[1]; 2.8 mg/kg/day,no effect; also recorded: essentially not affected
GSEGPLKPGARIFSFDGKDVLRHPT [hP5],inhibition of BxPC-3 tumor,[2],29%
GSQGQVQPGARIFSFDGRDVLRHPA [mP5],anti-tumor effect on LLC,[1],No or insignificant activity
HPAWPQKSVWHGSDPSGRRLMESY [mP6],anti-tumor effect on LLC,[1],No or insignificant activity
HPTWPQKSVWHGSDPNGRRLTESY [hP6],concentration at which VEGF-induced EC migration was inhibited,[3],100 ng/mL and 200 ng/mL
same,inhibition of EC migration,[3]; concentrations lower than 100 ng/ml,no inhibition
same,inhibition of EC migration,[3]; several doses,inhibited EC migration but at higher concentrations than hPl
HSHRDFQPVLHLVALNSPLSGGMRG [hP1],inhibition of BxPC-3 tumor,[2],39%
same,concentration at which VEGF-induced EC migration was inhibited,[3],25 ng/mL
same,inhibition of EC migration,[3]; at 500 ng/ml,no inhibition
same,inhibition of EC migration,[3]; several doses,more potent in inhibiting EC migration than full-length endostatin
HTHQDFQPVLHLVAL [mP1-15],anti-tumor effect on LLC,[1],inhibit tumor volume
HTHQDFQPVLHLVALNTPLS [mP1-20],anti-tumor effect on LLC,[1],inhibit tumor volume
HTHQDFQPVLHLVALNTPLSGGMRGIR [mP1],inhibition of LLC tumor,[1]; 2.8 mg/kg/day,44% and 42%
same,inhibition of LLC tumor formation,[4],inhibited LLC tumor formation less than at 2.8 mg/kg/d
MRGIRGA DFQAFQQARA VGLSGTFR (MRGIRGADFQAFQQARAVGLSGTFR) [mP2],anti-tumor effect on LLC,[1],No or insignificant activity
same,effect on vessel density (CD31),[5],no effect
same,inhibition of LLC tumor formation,[4],could inhibit LLC tumor formation as well as mP1 at 2.8 mg/kg/d
MRGIRGADFQAFQQARAVGLAGTFR [hP2],solubility,[6],> 2500 µg/mL
TFRAFLSSRLQDLYSIVRRADRAAV [hP3],anti-tumor effect on BxPC-3,[2]; 28 days,failed to inhibit tumor growth
"human endostatin (EntreMed): recombinant human endostatin, gift from EntreMed Corporation (protein, UniProt P39060 1572-1754, looked up, Endostatin, recombinant human endostatin, gift from EntreMed Corporation) Endostatin: HSHRDFQPVLHLVALNSPLSGGMRGIRGADFQCFQQARAVGLAGTFRAFLSSRLQDLYSIVRRADRAAVPIVNLKDELLFPSWEALFSGSEGPLKPGARIFSFDGKDVLRHPTWPQKSVWHGSDPNGRRLTESYCETWRTEAPSATGQASSLLGGRLLGQSAASCHHAYIVLCIENSFMTASK",concentration at which VEGF-induced EC migration was inhibited,[3],200 ng/mL
same,concentration of best (slightly better) inhibition of EC migration,[3]; U-shaped response,200 ng/mL
same,inhibition of EC migration,[3]; at 100 ng/ml,not at 100 ng/ml
